Source: patent publication US8703961B2, “Thiazole derivatives for the treatment of diseases such as cancer” (Merck Patent GmbH, priority 2009, dated 2014)
pIC50: −log10 of the molar value.

Key:
NUAK1 = target: T1, NUAK1 (Homo sapiens, UniProt O60285); assay: filter binding assay of NUAK1 inhibition; format: biochemical; details: for pIC50: derived from % inhibition at 1 μM; for remaining activity at 1 µM: read-out: residual kinase activity NUAK1
T1 construct: purchased
T1 sequence (O60285 1-661): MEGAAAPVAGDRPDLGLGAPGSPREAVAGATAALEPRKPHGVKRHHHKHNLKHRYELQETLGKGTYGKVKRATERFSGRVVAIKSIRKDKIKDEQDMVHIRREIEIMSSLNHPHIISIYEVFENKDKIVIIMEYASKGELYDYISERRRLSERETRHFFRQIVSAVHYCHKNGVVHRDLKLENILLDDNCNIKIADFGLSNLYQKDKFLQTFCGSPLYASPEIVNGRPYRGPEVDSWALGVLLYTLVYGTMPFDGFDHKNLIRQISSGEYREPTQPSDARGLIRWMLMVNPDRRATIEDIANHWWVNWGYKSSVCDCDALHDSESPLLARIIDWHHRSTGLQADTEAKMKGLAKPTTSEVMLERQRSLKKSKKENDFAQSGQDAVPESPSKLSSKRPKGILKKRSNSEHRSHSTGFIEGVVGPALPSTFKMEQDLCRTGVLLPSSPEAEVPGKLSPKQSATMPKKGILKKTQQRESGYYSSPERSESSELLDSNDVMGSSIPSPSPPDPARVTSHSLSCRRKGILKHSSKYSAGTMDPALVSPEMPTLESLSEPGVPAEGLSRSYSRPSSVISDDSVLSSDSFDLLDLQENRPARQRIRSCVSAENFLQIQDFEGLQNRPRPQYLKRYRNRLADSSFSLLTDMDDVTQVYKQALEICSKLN
Description: (§1) All kinase assays were carried out using the Multidrop 384 from Thermo-Fisher at room temperature in a total assay volume of 25.5 μl. 15 μl of an enzyme mix comprising enzyme and substrate in buffer are added to the test batch comprising either 0.5 μl of test substance, DMSO control or empty container. Test substances are pre-incubated in the presence of the enzyme and substrate for 5 minutes before the reaction is initiated by addition of 10 μl of ATP (concentration kinase-dependent of […]). The reaction is terminated by addition of 5 μl of orthophosphoric acid (50 mM). The test containers are then transferred onto P81 Unifilter plates by means of a “Packard Harvester” and dried in air. The dry Unifilter plates are sealed after the addition of MicroScint O, and the radioactivity is determined in a Packard Topcount NXT.
NUAK1 (5-20 mU diluted in 50 mM Tris pH 7.5, 0.1 mM EGTA, 0.1% β-mercaptoethanol, 1 mg/ml of BSA) is tested against ALNRTSSDSALHRRR as substrate. The final volume of 25.5 μl contains 50 mM Tris pH 7.5, 0.1 mM EGTA, 0.3 mM ALNRTSSDSALHRRR, 10 mM magnesium acetate and 0.02 mM [^33P-γ-ATP] (50-1000 cpm/pmole) and is incubated at room temperature for 30 min. Tests are terminated by the addition of 5 μl of a 0.5 M (3%) orthophosphoric acid soln. and then transferred onto P81 Unifilter plates and washed with 50 mM orthophosphoric acid buffer.

MAPK8 = MAPK8 (Homo sapiens, UniProt P45983); assay: filter binding kinase assay (second MAPK8 line); format: biochemical; details: read-out: residual kinase activity MAPK8
Description: as §1

MAPK8, sequence (P45983 whole entry): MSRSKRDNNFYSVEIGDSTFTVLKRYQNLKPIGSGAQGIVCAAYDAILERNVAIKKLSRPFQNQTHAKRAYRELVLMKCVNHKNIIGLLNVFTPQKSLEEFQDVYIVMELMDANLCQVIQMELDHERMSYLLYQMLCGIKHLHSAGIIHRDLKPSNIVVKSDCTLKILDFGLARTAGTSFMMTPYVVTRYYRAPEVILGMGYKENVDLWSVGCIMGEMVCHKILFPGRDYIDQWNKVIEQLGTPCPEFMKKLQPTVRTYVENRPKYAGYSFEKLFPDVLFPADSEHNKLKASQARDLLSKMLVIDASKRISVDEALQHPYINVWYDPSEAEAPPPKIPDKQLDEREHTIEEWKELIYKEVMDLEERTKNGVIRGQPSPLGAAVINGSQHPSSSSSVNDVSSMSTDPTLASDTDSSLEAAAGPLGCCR

Structure (SMILES)	pIC50 (NUAK1)	remaining activity at 1 µM (NUAK1)	melting point	remaining activity at 1 µM (MAPK8)
c1ccc(Cc2c[nH]c3ncsc23)cc1 [Compound A7, 6-benzyl-4H-pyrrolo[2,3-d]thiazole]	6.00 to 8.00	27%	133 to 135 °C	
Nc1ncsc1C#Cc1cnc2[nH]ccc2c1 [Compound A22, 5-(1H-pyrrolo[2,3-b]pyridin-5-ylethynyl)thiazol-4-ylamine]	6.00 to 8.00	16%		34%
CC(C)(C)OC(=O)Nc1nc(-c2ccncc2)sc1C#CCN1CCOCC1 [Compound A25, tert-butyl[5-(3-morpholin-4-ylprop-1-ynyl)-2-pyridin-4-ylthiazol-4-yl]-carbamate]	4.00 to 5.00			
CC(C)(C)OC(=O)Nc1ncsc1C#CCN1C(=O)c2ccccc2C1=O [Compound A26, tert-butyl{5-[3-(1,3-dioxo-1,3-dihydroisoindol-2-yl)prop-1-ynyl]-thiazol-4-yl}carbamate]	6.00 to 8.00	24%		
Nc1ncsc1C#Cc1cccc(O)c1 [Compound A27, 3-(4-aminothiazol-5-ylethynyl)phenol]	6.00 to 8.00	49%		
